Target: T1, CD73 (Homo sapiens, UniProt P21589)
T1 sequence (P21589 27-549): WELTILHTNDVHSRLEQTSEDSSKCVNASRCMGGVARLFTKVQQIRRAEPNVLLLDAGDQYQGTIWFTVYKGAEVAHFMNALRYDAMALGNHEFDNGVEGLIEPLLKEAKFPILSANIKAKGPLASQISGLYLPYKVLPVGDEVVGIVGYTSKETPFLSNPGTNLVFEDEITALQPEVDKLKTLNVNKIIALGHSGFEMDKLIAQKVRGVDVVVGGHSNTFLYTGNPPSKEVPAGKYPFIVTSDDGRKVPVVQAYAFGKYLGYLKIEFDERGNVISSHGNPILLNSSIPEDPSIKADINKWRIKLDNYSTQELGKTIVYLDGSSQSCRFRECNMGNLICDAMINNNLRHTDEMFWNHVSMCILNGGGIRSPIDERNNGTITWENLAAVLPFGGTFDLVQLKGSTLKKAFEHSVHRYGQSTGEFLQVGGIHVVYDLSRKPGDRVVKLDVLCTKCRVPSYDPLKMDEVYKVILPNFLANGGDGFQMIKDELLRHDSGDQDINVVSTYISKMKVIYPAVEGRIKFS
Experiment: Biochemical Assay: inhibition of CD73 activity (AMP hydrolysis, Malachite Green readout)
Conditions: CD73 0.3208 nM, AMP 15 μM, 25 mM Tris-HCl pH 7.4, 10 min reaction at RT; read-out: CD73_Biochem
Description: Example A1: Biochemical Assay
Assay Reaction Conditions
• Assay Volume: 70 μl • Reaction Volume: 50 μl • CD73: 0.3208 nM • AMP: 15 μM • Assay Buffer: 2 5 mM Tris-HCL, pH 7.4, 0.01% Brij-35, 0.01% BSA, 5 mM MgCl2 Assay Procedure:
Made dose titration of testing compounds in assay buffer, 10 points ½ log titrations in duplicates starting at 100 μM.
Added 25 μl of CD73 to each well for a final concentration of 320 pM.
Incubated at RT for 15 min.
Added 25 μl of AMP to each well for a final concentration of 15 μM.
Incubated at RT for 10 min.
Added 10 μl of Malachite Green Reagent A, incubate at RT for 10 min.
Added 10 μl of Malachite Green Reagent B, incubate at RT for 45 min.
Read the Absorbance on Envision plate reader using excitation filter: Cy5 […].
The ability of the compounds disclosed herein to inhibit CD73 activity was quantified and the respective IC50 values were determined. Table 2 provides the biochemical IC50 values of compounds disclosed herein.

**Q.** With `COCCOCC(COCc1nnn[nH]1)(OC[C@H]1O[C@@H](n2ncc3c(NC4CCCC4)nc(Cl)nc32)[C@H](O)[C@@H]1O)P(=O)(O)O` (single isomer, unassigned) [Example 2] as the compound, how does the IC50 read?
**A.** ≤ 10 nM
